{"source": "patent US20170224819A1", "about": "“Therapeutic Combinations of a BTK Inhibitor, a PI3K Inhibitor, a JAK-2 Inhibitor, and/or a CDK 4/6 Inhibitor” (Acerta Pharma B.V., priority 2014, published 2017)", "key": {"[1]": {"system": "GPVI platelet aggregation", "experiment": "GPVI platelet aggregation studies", "format": "cell-based", "details": "read-out: IC50, GPVI platelet aggregation"}, "BCR": {"system": "BCR", "experiment": "In vivo potency: expression of activation markers CD69 and CD86 after BCR stimulation with IgM", "details": "compared with ibrutinib; mice gavaged, sacrificed 3 h post-dose; flow cytometry; FIG. 137", "protocol": "Mice were gavaged at increasing drug concentration and sacrificed at one time point (3 h post-dose). BCR is stimulated with IgM and the expression of activation markers CD69 and CD86 are monitored by flow cytometry to determine EC50's."}, "KrasLA2 NSCLC": {"system": "KrasLA2 NSCLC", "experiment": "KrasLA2 non-small cell lung cancer (NSCLC) model", "format": "in vivo", "description": "FIG. 161 illustrates the dosing schema used with the KrasLA2 non-small cell lung cancer (NSCLC) model.\nFIG. 162 illustrates tumor volume variation from baseline as assessed by microcomputerized tomography (microCT) in the KrasL2 NSCLC model."}, "[2]": {"system": "orthotopic pancreatic cancer (KPC derived cells)", "experiment": "Orthotopic pancreatic cancer model (KPC cell line implanted in C57BL/6 mice)", "format": "in vivo", "details": "orthotopic PDA model, oral 15 mg/kg", "protocol": "Cell line derived from KrasG12D; Trp53R172H; Pdxl-Cre (KPC) mice were orthotopically implantated into the head of the pancreas after 35 passages. Based on the mice background from where the cell lines were generated, 1×10^6 cells were injected in C57BL/6 mice. Throughout the experiment, animals were provided with food and water ad libitum and subjected to a 12-h dark/light cycle. Animal studies were performed in accordance with the U.S. Public Health Service “Guidelines for the Care and Use of Laboratory Animals” (IACUC). After euthanization, pancreatic tumors were dissected out, weighed and single cell suspensions were prepared for flow cytometry analysis."}, "[3]": {"system": "human platelet-mediated thrombosis", "experiment": "In vivo human thrombus formation in the VWF HA1 mice model (laser-induced injury)", "details": "pretreated human platelets", "protocol": "Constitutive or aberrant activation of the BCR signaling cascade has been implicated in the propagation and maintenance of a variety of B cell malignancies. […] J. Haematol. […] In fact, both Tec and BTK play an important role in the regulation of phospholipase Cγ2 (PLCγ2) downstream of the collagen receptor glycoprotein VI (GPVI) in human platelets. […] Biotechnol.\nInjury to the vessel wall of arterioles ([…] diameter) was performed using a pulsed nitrogen dye laser (440 nm, Photonic Instruments) applied through a 20× water-immersion Olympus objective (LUMPlanFl, 0.5 numerical aperature (NA)) of a Zeiss Axiotech vario microscope. […] The extent of thrombus formation was assessed for 2 minutes after injury and the area (μm^2) of coverage determined (Image IQ, Andor Technology).\nThe BTK inhibitor-treated human platelets were fluorescently labeled and infused continuously through a catheter inserted into the femoral artery."}, "BTK": {"target": "T1, BTK (Mus musculus, UniProt P35991)", "T1 construct": "MDSCs were purified from tumor bearing PDA mice; endogenous in cells; host or cells: granulocytic and monocytic MDSCs from tumour-bearing PDA mice", "T1 sequence (P35991 whole entry)": "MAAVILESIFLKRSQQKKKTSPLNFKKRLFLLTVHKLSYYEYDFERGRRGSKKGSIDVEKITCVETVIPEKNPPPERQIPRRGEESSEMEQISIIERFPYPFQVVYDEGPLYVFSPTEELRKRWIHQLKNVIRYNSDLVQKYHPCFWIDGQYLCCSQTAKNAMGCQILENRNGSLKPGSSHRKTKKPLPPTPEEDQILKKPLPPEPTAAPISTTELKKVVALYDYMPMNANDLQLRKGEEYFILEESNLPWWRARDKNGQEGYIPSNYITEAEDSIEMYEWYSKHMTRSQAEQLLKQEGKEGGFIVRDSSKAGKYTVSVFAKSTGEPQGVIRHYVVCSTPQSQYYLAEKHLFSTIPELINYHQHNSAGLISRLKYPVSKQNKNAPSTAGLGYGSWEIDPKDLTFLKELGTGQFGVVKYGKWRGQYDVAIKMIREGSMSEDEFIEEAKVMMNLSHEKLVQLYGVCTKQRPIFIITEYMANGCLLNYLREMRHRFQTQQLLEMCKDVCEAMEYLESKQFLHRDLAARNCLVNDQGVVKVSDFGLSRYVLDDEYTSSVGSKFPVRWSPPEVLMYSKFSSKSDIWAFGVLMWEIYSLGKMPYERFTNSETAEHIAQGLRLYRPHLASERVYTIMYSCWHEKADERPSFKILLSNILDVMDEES", "experiment": "Molecular probe assay of irreversible BTK occupancy in MDSCs of tumor bearing PDA mice", "format": "in vivo", "details": "15 mg/kg BID, Day 8, 4 hours post dose (N=5)", "description": "A molecular probe assay was used to calculate the percent irreversible occupancy of total BTK."}, "[4]": {"system": "chronic lymphocytic leukemia (CLL)", "experiment": "Clinical study of Formula (XVIII) in relapsed/refractory CLL"}}, "note": "Entries after “also recorded” stand apart in the source; their conditions may differ."}
{"smiles": "CC#CC(=O)N1CCC[C@H]1c1nc(-c2ccc(C(=O)Nc3ccccn3)cc2)c2c(N)nccn12", "note": "[Formula (XVIII), (S)-4-(8-amino-3-(1-(but-2-ynoyl)pyrrolidin-2-yl)imidazo[1,5-a]pyrazin-1-yl)-N-(pyridin-2-yl)benzamide]", "values": [{"measurement": "IC50", "setting": "[1]", "result": 1150, "unit": "nM"}, {"measurement": "potency at inhibiting expression of activation markers CD69 and CD86", "setting": "BCR", "result": "more potent"}, {"measurement": "immunosuppressive tumor associated TAMs", "setting": "KrasLA2 NSCLC; FIG. 163", "result": "significant reduction"}, {"measurement": "immunosuppressive tumor associated MDSCs", "setting": "KrasLA2 NSCLC; FIG. 164", "result": "significant reduction"}, {"measurement": "immunosuppressive tumor associated Tregs", "setting": "KrasLA2 NSCLC; FIG. 165", "result": "significant reduction"}, {"measurement": "Immature myeloid infiltrate (MDSCs)", "setting": "[2]", "result": "decreased immature myeloid infiltrate"}, {"measurement": "Immunosuppressive Tregs", "setting": "[2]", "result": "reduced the number of immunosuppressive Tregs"}, {"measurement": "Tumor associated macrophages", "setting": "[2]", "result": "reduced the number of tumor associated macrophages"}, {"measurement": "Tumor burden", "setting": "[2]", "result": "significantly reduced tumor burden"}, {"measurement": "Effect on human platelet-mediated thrombus formation", "setting": "[3]", "result": "does not interfere with thrombus formation; also recorded: no significant effect on human platelet-mediated thrombus formation"}, {"measurement": "Irreversible BTK occupancy in granulocytic and monocytic MDSCs", "setting": "BTK", "result": "Complete BTK occupancy"}, {"measurement": "PD (progressive disease)", "setting": "[4]; 100 mg QD (N = 8)", "result": "0 (0) n (%)"}, {"measurement": "PD (progressive disease)", "setting": "[4]; 175 mg QD (N = 8)", "result": "0 (0) n (%)"}, {"measurement": "PD (progressive disease)", "setting": "[4]; 250 mg QD (N = 7)", "result": "0 (0) n (%)"}, {"measurement": "PD (progressive disease)", "setting": "[4]; All Cohorts (N = 31)", "result": "0 (0) n (%)"}, {"measurement": "PR (partial response)", "setting": "[4]; All Cohorts (N = 31)", "result": "22 (71) n (%)"}, {"measurement": "PR + L (partial response with lymphocytosis)", "setting": "[4]; All Cohorts (N = 31)", "result": "7 (23) n (%)"}, {"measurement": "Time of treatment at which the median % change in SPD achieved the same status", "setting": "[4]; CLL patients, present study", "result": 7, "unit": "months"}, {"measurement": "PFS (Kaplan-Meier) in comparison to ibrutinib", "setting": "[4]; CLL patients, Log-Rank p-value 0.0206", "result": "An improvement in survival and a reduction in risk"}, {"measurement": "Treatment-related adverse event: Headache", "setting": "[4]; Grade 1/2, All (N = 44)", "result": "7 (16) n (%)"}, {"measurement": "Treatment-related adverse event: Diarrhea", "setting": "[4]; Grade 1, All (N = 44)", "result": "4 (9) n (%)"}, {"measurement": "Dose-limiting toxicities (DLTs)", "setting": "[4]; human, in vivo", "result": "No DLTs were observed"}, {"measurement": "Grade of adverse events", "setting": "[4]; human, in vivo", "result": "only grade 1 AEs were observed"}, {"measurement": "Lymphocytosis", "setting": "[4]; human, in vivo", "result": "A lack of lymphocytosis was observed"}, {"measurement": "Treatment-related adverse event: Increased tendency to bruise", "setting": "[4]; human, in vivo", "result": "6 (14) n (%)"}, {"measurement": "Treatment-related adverse event: Petechiae", "setting": "[4]; human, in vivo", "result": "3 (7) n (%)"}, {"measurement": "Treatment-related serious adverse events (SAEs)", "setting": "[4]; human, in vivo", "result": "No treatment-related serious adverse events (SAEs) were observed"}, {"measurement": "Progression in patients with the 17p deletion", "setting": "[4]; to date", "result": "no 17p patients have progressed"}]}
